# Measured values taken from paper PMC8277129, “Bioconcentration of Several Series of Cationic Surfactants in Rainbow Trout” (Environmental Science & Technology, 2021).
# Where “and” joins values, the source holds several entries; their conditions need not be identical. Equal values may be shown once. Read-outs that look alike come from different tables or passages of the source.
# Columns and labels:
# [1] = tested on: rainbow trout; design: method as in PMID 32062967; conditions: after the 7 d exposure; cited from earlier work
# [2] = tested on: gills of rainbow trout; assay: Mechanistic one-box mass balance model of gill uptake and elimination; conditions: for predicted gill elimination rate constant eq 1 (k2): from measured kU and modeled αW, αB, DFW
# Text: To gain more mechanistic insight into the results, we formulated a simple one-box mass balance model of chemical bioconcentration in fish that considered diffusive uptake and elimination across the gills as well as biotransformation.[33] The flow of water across the gills and the flow of blood through the gills were modeled as perfusion limited resistances that constrain gill uptake and elimination. […] Consequently, these resistances are unknowns. Ion trapping effects caused by differences in pH between water at the gill surface and blood in the gills are considered, drawing on previous work on the uptake and elimination of ionizable organic chemicals across the gills of rainbow trout.[22],[23] Partitioning of the chemical from the dissolved phase into blood and into whole fish was calculated as the product of the membrane lipid–water distribution ratio (DMLW,T, including partitioning of both the neutral and the charged forms) and the fraction of membrane lipid in blood and whole fish. A detailed description of the model is provided in the SI (Text S3).
# The contribution of the water perfusion and blood perfusion resistances were compared with the overall resistance for transport across the gills from water to blood (RW→B), which was calculated from the measured kU according to equation S4.3. […] For all of the other chemicals the blood resistance is insignificant compared to the overall resistance.
# The rate constant for elimination across the gills, k2, can be defined as follows: [drawing 1] 1 where αB and αW are the neutral fractions of the chemical in the blood and in the water at the gill surface, respectively, and DFW is the fish-water distribution ratio of the chemical at the pH of blood (8.1) (see Text S3). Using the measured kU and the values of αW, αB, and DFW estimated for the model, k2 was calculated (Table 2).
# [3] = Membrane-water partition coefficient of the charged form (DMLW,C); format: physicochemical; conditions: extrapolated from Timmer and Droge (2017)
# Experimental: Table S3: Test chemical properties
# Abbr. pKa$ Log DOC§ Log DMLW,C# SMILES
# $ pKa values derived/reported for different alkylamine type analogues. The selected value is expected to be independent of chain length for all longer chain homologues, using a weighted value obtained from the different sources with more focus on experimental data:
# Algorithm / simulated data Experimental reference data (25 °C)
# Chem ACD/ COSMO- selected
# (https://echa.europa.eu/registration-dossier/-
# [4] = tested on: juvenile rainbow trout (Oncorhynchus mykiss); assay: Bioconcentration (BCF) experiment based on OECD 305, aqueous exposure to surfactant mixtures; format: in vivo; conditions: for uptake rate constant (kU): 14 d exposure, 28 d depuration; for uptake rate constant (kU) / BCF (kU/kT) / measured total elimination rate constant (kT): whole fish
# Experimental: (§1) Juvenile rainbow trout were purchased from EM lax in Västervik, Sweden, and held in the aquaria facility for one month prior to starting the experiment on August 28, 2018. Ethical approval for the experiments was obtained from Stockholm’s djurförsöksetiska nämnd (decision 9967–2017). The experiment was conducted in six 350 L fiberglass aquaria with a water renewal rate of 1.5 L min^–1 corresponding to a turnover time of […]. The water temperature and the air temperature in the aquaria room were 10 °C. The lighting was dim and programmed on a 12 h light/12 h dark cycle.
# (§2) Three BCF experiments were conducted, one each for MIX1 and MIX2 at pH ∼7.6 (denoted MIX1 and MIX2 in the following), and one for MIX1 at pH ∼6.2 (MIX1pH). Each experiment consisted of a 14 d exposure phase and a 28 d depuration phase. There were also two control aquaria where unexposed fish were kept, one at pH 7.6 and one at pH 6.2. For the pH 6.2 aquaria, a 20% v:v formic acid solution was pumped into a premixing basin where it was mixed with the inflowing water before entering the aquarium. pH sensors monitored pH in the premixing basin and the aquarium. The pH for the MIX1 and MIX2 experiments was governed by the pH of the water supply. Water samples were collected at 8 time points during each experiment for the determination of pH and alkalinity. Water samples were collected daily during the exposure phase for determination of total organic carbon (TOC), which was measured with NDIR detection after acidification, purging and high-temperature catalytic combustion (Shimadzu TOC-L).
# (§3) For the exposure phase, a methanol solution of the test chemical mixture was infused continuously at 4.0 μL min^–1 into the water inflow of the aquarium using a syringe pump. The target concentrations of the chemicals in water ranged from 2.5 to 100 μg L^–1 (Table 1). They were selected to be as low as possible to minimize the risk of toxic effects while still being high enough to enable collection of high-quality data, building on the results of the tissue distribution experiment.[32] The syringe pump was started in an aquarium containing no fish. After 16 h to allow the concentrations to stabilize, ∼80 rainbow trout were transferred to the aquarium. Over the following 14 d water samples were collected and fish were sacrificed according to the schedule in Table S5. The remaining fish were then transferred to a second aquarium that received water without chemical addition. Over the following 28 d further water samples were collected and fish were sacrificed (Table S5).
# (§4) At each fish sampling, 4–6 fish were sacrificed. Fish were also sampled periodically from the control aquaria. Following stunning and severance of the spinal cord, the fish were placed in a polyethylene bag, weighed, and immediately frozen at −20 °C. The median fish weight at sacrifice was 10.94 g, with a 25th and 75th percentile of 8.43 and 13.58 g, respectively.
# (§5) Three fish from each time point were prioritized for analysis based on proximity to the median fish weight. Each fish was semithawed, cut into 3–4 pieces, and homogenized with an Ultra-Turrax device. 150 mg of the homogenate was transferred to a preweighed 13 mL polypropylene tube, centrifuged to a pellet, and weighed. 50 μL of methanol was added and the prepared aliquot was frozen. For extraction internal standard solution (isotope labeled standards of Q10 (D21), Q14 (D29), and P16 (D33)), 3 mL of methanol and 3 steel balls (3.2 mm diameter) were added to the prepared aliquot. This mixture was mixed in a bullet blender for 1 min, and then placed in an ultrasound bath at 50 °C for 60 min. Following centrifugation, the supernatant was decanted and the extraction was repeated. The extracts were combined and a portion corresponding to 25–50 mg homogenate was cleaned up on a weak cationic exchange SPE column (WCX, 60 mg) as described elsewhere.[32] […]
# [5] = tested on: rainbow trout; assay: Semiquantitative screening of demethylation metabolites in exposed fish; format: in vivo; conditions: last time point of the exposure phase
# Experimental: Semiquantitative screening of possible demethylation metabolites was conducted in the fish collected at the last time point of the exposure phase. […] Demethylation of T10 to form S10 was reported in an in vitro S9 assay, and it was proposed that this is an important elimination mechanism for tertiary amines in fish.[27] There is in vitro evidence that demethylation of secondary alkylamines also occurs, which will be reported elsewhere.[37]
# [6] = design: method as in Perrin 1965, SRC, REACH, Perrin 1972, Hall 1957; conditions: selected per amine type, weighted from simulated and experimental analogue data; ref Perrin 1965, SRC, REACH, Perrin 1972, Hall 1957; cited from earlier work
# [7] = Estimated neutral fraction in water at the fish gill surface; conditions: pH 7.6 experiments; estimated pKa of 10
# Text: The BCF was markedly lower for the QACs compared to tertiary amines with the same chain length: a factor >670 for Q10 compared to T10, and a factor 160 for Q14 compared to T14 (Figure 1, upper panel). The prominent structural difference between the QACs and the analogous tertiary amines is that the former are permanently charged, while the latter exist in both a charged (protonated) and a neutral form.
# Text S5: Estimation of pH at the gill surface
# The pH at the surface of the gills was calculated using the following system of 5 equations:
# alk = 2 × [CO2 ― ] + [HCO ― ] (3)
# DIC = [H CO ] + [HCO ― ] + [CO2 ― ] (4) where alk is alkalinity and DIC is total dissolved inorganic carbon. The dissociation constants K1 and K2 were estimated from water temperature according to equations 9.23 and 9.24 in http://www-naweb.iaea.org/napc/ih/documents/global_cycle/vol%20I/cht_i_09.pdf The measured pH and alkalinity in bulk water were used to solve for [H+], [HCO3-], [CO32-], [H2CO3] and DIC. For the water in the gill lamella, the carbon added to the water via respiration (0.0002 mol L-1 based on estimated oxygen demand and gill ventilation rate for a 10 g fish at 10 °C (Arnot et al. 2008, Armitage et al. 2013)) was added to DIC, and using this new DIC and the alkalinity the 5 equations were resolved for [H+], [HCO3-], [CO32-], [H2CO3] and pH. […]
# [8] = ref Timmer and Droge (2017); cited from earlier work
# [9] = Bioconcentration (BCF) experiment based on OECD 305, aqueous exposure to surfactant mixtures; format: in vivo, Oncorhynchus mykiss; conditions: whole fish, read-out: measured total elimination rate constant (kT) (converted)
# Experimental: as §1, §2, §3, §4, §5
"measured total elimination rate constant (kT) ([4]; pH 7.6 (MIX1, MIX2)) [h^–1]",SMILES,fraction in gills and skin/mucus [1] [%],"k2/kT ([2]; pH 7.6 (MIX1, MIX2))","predicted gill elimination rate constant eq 1 (k2) ([2]; pH 7.6 (MIX1, MIX2)) [h^–1]","Log DMLW,C (membrane-water partition coefficient of the charged form) [3]","uptake rate constant (kU) ([4]; pH 7.6 (MIX1, MIX2), 10 °C) [L kg^–1 h^–1]","BCF (kU/kT) ([4]; pH 7.6 (MIX1, MIX2)) [L kg^–1]",demethylation metabolites observed in fish [5],pKa used (selected value) [6],k2/kT ([2]; pH 6.2 (MIX1pH)),predicted gill elimination rate constant eq 1 (k2) ([2]; pH 6.2 (MIX1pH)) [h^–1],modeled water resistance as share of the measured uptake resistance ([2]; pH 7.6),factor by which BCF is lower at pH 6.2 than at pH 7.6 ([4]; MIX1 vs MIX1pH),factor by which kT is greater at pH 6.2 than at pH 7.6 ([4]; MIX1 vs MIX1pH),uptake rate constant (kU) ([4]; pH 6.2 (MIX1pH)) [L kg^–1 h^–1],BCF (kU/kT) ([4]; pH 6.2 (MIX1pH)) [L kg^–1],"Log DMLW,C (membrane-water partition coefficient of the charged form) [8]",further results
0.0027,"CCCCCCCCCCCCCCCCNC [S16, N-methylhexadecylamine]",71,0.03,0.00007,7.71,22,8200,P16 was not detected,C16N(CH3)H (10.8),–,–,–,–,–,–,–,–,–
0.0034,"CCCCCCCCCCCCCCN(C)C [T14, N,N-dimethyltetradecylamine]",–,1.2,0.004,6.46,27,8100,–,C14N(CH3)2 (10.0),–,–,–,–,–,–,–,–,factor by which kU is higher than for Q14 ([4]; pH 7.6): 260; neutral fraction in the water at the fish gill surface [7]: approximately 0.002
–,"CCCCCCCCCCCCCCCCN [P16, Hexadecylamine]",73,0.01,0.00003,7.90,15.3,6100,–,C16NH2 (10.6),0.09,0.00023,exceeds 50%,2,no pH dependency for kT,7.8,3000,–,"pH dependency of k2 (factor between pH 7.6 and pH 6.2) ([2]; MIX1 vs MIX1pH): 7; k el ([9]; pH 6.2 (MIX1pH)): 7.22e-07 s⁻¹; k el ([9]; pH 7.6 (MIX1, MIX2)): 6.94e-07 s⁻¹; factor by which kU is lower at pH 6.2 than at pH 7.6 ([4]; MIX1 vs MIX1pH): 2"
0.0066,"CCCCCCCCCCCCNC [S12, N-methyldodecylamine]",–,0.6,0.004,–,5.5,840,"P12, a metabolite of S12, was also observed",C12N(CH3)H (10.8),–,–,–,–,–,–,–,5.39,–

SMILES,"measured total elimination rate constant (kT) ([4]; pH 7.6 (MIX1, MIX2)) [h^–1]",fraction in gills and skin/mucus [1] [%],"k2/kT ([2]; pH 7.6 (MIX1, MIX2))","predicted gill elimination rate constant eq 1 (k2) ([2]; pH 7.6 (MIX1, MIX2)) [h^–1]","Log DMLW,C (membrane-water partition coefficient of the charged form) [3]","uptake rate constant (kU) ([4]; pH 7.6 (MIX1, MIX2), 10 °C) [L kg^–1 h^–1]","BCF (kU/kT) ([4]; pH 7.6 (MIX1, MIX2)) [L kg^–1]",demethylation metabolites observed in fish [5],pKa used (selected value) [6],k2/kT ([2]; pH 6.2 (MIX1pH)),predicted gill elimination rate constant eq 1 (k2) ([2]; pH 6.2 (MIX1pH)) [h^–1],modeled water resistance as share of the measured uptake resistance ([2]; pH 7.6),factor by which BCF is lower at pH 6.2 than at pH 7.6 ([4]; MIX1 vs MIX1pH),factor by which kT is greater at pH 6.2 than at pH 7.6 ([4]; MIX1 vs MIX1pH),uptake rate constant (kU) ([4]; pH 6.2 (MIX1pH)) [L kg^–1 h^–1],BCF (kU/kT) ([4]; pH 6.2 (MIX1pH)) [L kg^–1],"Log DMLW,C (membrane-water partition coefficient of the charged form) [8]",further results
"CCCCCCCCCCCCCN(C)C [T13, N,N-dimethyltridecylamine]",0.0049,–,1.9,0.010,5.88,15.9,3200,trace levels of the corresponding primary amines,C13N(CH3)2 (10.0),2.8,0.039,exceeds 50%,9.5,3 and 2.8,4.7,340,–,measured total elimination rate constant (kT) ([4]; pH 6.2 (MIX1pH)): 0.0139 h^–1; BCF compared with REACH B (2000) and vB (5000) thresholds ([4]; pH 7.6): greater than 2000 L kg ww^–1
"CCCCCCCCCN(C)C [T9, N,N-dimethylnonylamine]",0.059,–,4.6,0.27,–,2.0,35,trace levels of the corresponding primary amines,C13N(CH3)2 (10.0),–,–,–,–,–,–,–,3.07,factor by which k2 exceeded kT ([2]; pH 7.6): ~5
